Laboratory results: paper PMC5061733, “SpyB, a Small Heme-Binding Protein, Affects the Composition of the Cell Wall in Streptococcus pyogenes” (Frontiers in Cellular and Infection Microbiology, 2016)
Read-outs that look alike come from different tables or passages of the source.

What was measured:
[1] = target: T1, SpyB (synthetic SpyB peptide); experiment: tryptophan fluorescence quenching; type: binding, Streptococcus pyogenes; settings: 5 μM SpyB, 20 mM HEPES, 100 mM NaCl, 1 mM DTT, pH 7.5, 20°C
T1 construct: chemically synthesized SpyB peptide (GenScript); SpyB is 35 residues; no tag mentioned
Text: tryptophan fluorescence quenching on SpyB (synthetic SpyB peptide)

[2] = target: MBP-SpyB; settings: read-out: Hemin, KD; 2.5 μM (Figure 5D; Methods: 5 μM) heme-free monomer, 20 mM HEPES, 100 mM NaCl, 1 mM DTT, pH 7.5, 20°C

| Compound | Kd ([1]; read-out: Hemin, KD) | Kd [2] | Kd ([1]; read-out: Protoporphyrin IX, KD) |
| --- | --- | --- | --- |
| C=CC1=C(C)C2=Cc3c(C=C)c(C)c4[n]3[Fe]([Cl])[n]3c(c(C)c(CCC(=O)O)c3=CC3=NC(=C4)C(C)=C3CCC(=O)O)=CC1=N2 [hemin] | 2.6 µM | 12 µM |  |
| C=CC1=C(C)c2cc3[nH]c(cc4nc(cc5[nH]c(cc1n2)c(C)c5CCC(=O)O)C(CCC(=O)O)=C4C)c(C)c3C=C [protoporphyrin IX] |  |  | 4.9 µM |
